Among the data in PubChem BioAssay (NCI) are GI50 and TGI values, retold here.

Common to all, as to experiment: NCI tumour cell line growth inhibition, 48 h
The test system of experiment [1] is SF-268 CNS.
The subject of experiment [2] is UACC-62 melanoma.
For experiment [3], the system named is CAKI-1 renal.
Experiment [4] has as its system TK-10 renal.
Experiment [5] concerns CCRF-CEM leukemia.
In experiment [6] the test system is UO-31 renal.
Experiment [7] concerns SNB-19 CNS.
Experiment [8] relates to MDA-MB-231 breast.
Experiment [9] relates to NCI-H23 lung.
In experiment [10] the test system is U251 CNS.

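Test compounds were applied to cells in 96-well plates for 48 hours at 5 doses. Here, GI50 denotes the concentration required for 50% inhibition of growth. TGI: total growth inhibition.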 Where only a bound is given, the exact number is not on record here.

Turning to `CN(C)c1ccc(Nc2c3ccccc3nc3cc(NC(=O)CCN4CCCC4)ccc23)cc1`, the GI50 was 0.473 µM in experiment [1]; 0.774 µM in experiment [2]; 0.594 µM in experiment [3]; 1.13 µM in experiment [4]; 0.0778 µM in experiment [5]; 0.595 µM in experiment [6]. In addition, the GI50 was 0.305 µM in experiment [7], 1.23 µM in [8], 0.29 µM in experiment [9] and 0.227 µM in experiment [10]. Moreover, the TGI was 1.88 µM in experiment [1]; 2.11 µM in experiment [2]; 2.19 µM in experiment [3]; 3 µM in experiment [4]; 1.38 µM in experiment [5]; 1.92 µM in experiment [6]. The TGI in experiment [7] came out at 1.64 µM; in [8], 2.92 µM; in experiment [9], 1.35 µM; in experiment [10] it was 1.58 µM.
Take `O=C1/C(=C/c2ccc(Cl)cc2)CCC1CN1CCOCC1` (centres undefined): the TGI came out at 45.9 µM in [1]; 15.8 µM in experiment [2]; 9.46 µM in [3]; 18.3 µM in experiment [4]; 6.84 µM in experiment [5]; 22.4 µM in [6]. For the same compound, the TGI came out at 30.8 µM in experiment [7], 11.2 µM in experiment [8], 20.9 µM in experiment [9] and 40.2 µM in [10].
Consider `C[C@@H](Oc1cc(-n2cnc3ccc(OCC4CCN(C)CC4)cc32)sc1C(N)=O)c1ccccc1Cl`, for which the GI50 is 0.112 µM in [1]; 0.0957 µM in experiment [2]; 0.774 µM in experiment [3]; 0.583 µM in experiment [4]; 0.00965 µM in [5]; 0.616 µM in experiment [6]. In addition, the GI50 in experiment [7] was 0.177 µM; in experiment [8], 0.0924 µM; in experiment [9] it was 0.103 µM; in experiment [10] it was 0.106 µM. Further, the TGI in experiment [1] is 4.07 µM; in experiment [2] it was 4.07 µM; in experiment [3], 4.81 µM; in experiment [4] it was 5.13 µM; in experiment [5], 0.856 µM; in [6] it was 3.96 µM. For the same compound, the TGI came to 5.01 µM in [7], 2.15 µM in [8], 3.64 µM in [9] and 3.86 µM in experiment [10].
For `COc1cc(OC)c(F)c(COc2cnc(Nc3cnn(CCO)c3)nc2)c1F`, the GI50 in [1] is 1.03 µM; in [2] it was 0.518 µM; in experiment [3] it was 0.394 µM; in experiment [4] it was 1.01 µM; in [5] it was 0.669 µM; in experiment [6] it was 0.556 µM. For the same compound, the GI50 in [7] was 0.796 µM; in [8], 1.38 µM; in experiment [9], 1.86 µM; in experiment [10], 0.528 µM. The TGI in experiment [1] was more than 64.9 µM; in [2], more than 62 µM; in experiment [3], 2.87 µM; in [4], more than 27.9 µM; in experiment [5] it was more than 100 µM; in experiment [6], more than 20.5 µM. Moreover, the TGI in experiment [7] was more than 100 µM; in experiment [8] it was 7.64 µM; in experiment [9], more than 100 µM; in experiment [10], more than 30.8 µM.
For the compound `CN(C)CC1CCCCCC(Br)C1=O` (centres undefined), the TGI in experiment [1] was more than 66.1 µM; in [2] it was 44 µM; in experiment [3] it was 16 µM; in experiment [4], 17.7 µM; in experiment [5], 3.15 µM; in [6], 26.6 µM. In addition, the TGI in experiment [7] was more than 100 µM; in experiment [8], 30.9 µM; in experiment [9], 29.6 µM; in [10], 43 µM.
For the compound `COC1C(CO)OC(n2c3c(Cl)cccc3c3c4c(c5c6cccc(Cl)c6[nH]c5c32)C(=O)NC4=O)C(O)C1O` (centres undefined), the TGI was more than 51.7 µM in experiment [1]; 0.257 µM in [2]; 0.565 µM in experiment [3]; 19.7 µM in experiment [4]; more than 100 µM in experiment [5]; 2.6 µM in experiment [6]. In addition, the TGI is more than 100 µM in [7], more than 54.7 µM in [8], 2.72 µM in [9] and 5.12 µM in experiment [10].
As to `COc1cnc2c(c1)C(=O)c1c-2n(CCCNCCN2CCOCC2)c(=O)c2cc([N+](=O)[O-])ccc12`, the GI50 was 0.0818 µM in [1]; 0.0438 µM in experiment [2]; 0.0433 µM in experiment [3]; 0.73 µM in [4]; 0.0453 µM in [5]; 0.0523 µM in experiment [6]. For the same compound, the GI50 in experiment [7] is 0.11 µM; in experiment [8], 0.63 µM; in experiment [9] it was 0.152 µM; in experiment [10], 0.0783 µM. Further, the TGI in experiment [1] was determined as 13.3 µM; in [2] it was 0.434 µM; in experiment [3] it was 7.31 µM; in experiment [4], 3.17 µM; in experiment [5], 3.2 µM; in experiment [7], 5.2 µM. For the same compound, the results for the TGI in experiment [8], in experiment [9] and in [10] were 2.65 µM, 1.61 µM and 1.1 µM, respectively.
Regarding `Nc1nc(-c2ccc(Cl)cc2)cc(-c2ccc(Cl)cc2)c1-c1nc2ccccc2o1`, the GI50 in experiment [1] is 14.5 µM; in experiment [2], 18.9 µM; in [3] it was 20 µM; in experiment [4] it was 20 µM; in experiment [5] it was 11.4 µM; in [6], 14.8 µM. The GI50 in experiment [7] is 19.6 µM; in experiment [8], 15.8 µM; in experiment [9] it was 17.8 µM; in experiment [10] it was 18.5 µM. Also, the TGI is 34.1 µM in experiment [1]; 34.2 µM in experiment [2]; 35.9 µM in [3]; 41.9 µM in experiment [4]; 34.1 µM in experiment [5]; 29.9 µM in experiment [6]. Further, the TGI is 41.4 µM in experiment [7], 31.3 µM in [8], 37.3 µM in experiment [9] and 36 µM in [10].
